{"source": "patent US20240341337A1", "about": "“METHOD FOR CREATING MASKING COMPOSITIONS” (GIVAUDAN SA, priority 2021, published 2024)", "key": {"[1]": {"assay": "Antagonist screening for pea protein off-notes on VAS aroma blending device, off-note Ex. A", "set-up": "key to Off-note Ex. A masking effect: +++ being most effective; ++ in the middle; + some effect; +/− being in between; − being no effect", "conditions": "off-note channel 1, 0.01% in MCT, flow 300; antagonist channel conc. as in Table 2 c2", "method": "(§1) In one embodiment, the screening step is carried out using the above described aroma blending device as follows: each off-note molecule(s) identified from a target non-animal derived protein may be loaded into its own individual cartridge or channel (for example, propyl-iso-2-methoxy-3-pyrazine may be loaded into cartridge/channel #1, and isobutyl-3-methoxy-2-pyrazine may be loaded into cartridge/channel #2, etc.); next, the target non-animal protein is diluted as will be discussed below and may be loaded into its own individual cartridge/channel, for example, cartridge/channel #6 to act as the control or base; next, each antagonist candidate molecule that has been identified may be loaded into its own individual cartridge/channel (for example, molasses distillate may be loaded into cartridge/channel #7 and bisabolene may be loaded into cartridge/channel #8, etc). Next, the gas flow on the off-note molecule containing cartridge/channel is first opened, followed by one of the antagonist candidate molecule containing cartridges/channels. The intensity of the flow of the antagonist candidate molecule containing cartridge/channel is adjusted until the off-note is canceled or neutralized by the antagonist candidate molecule, i.e neutralization concentration. This process is repeated for each antagonist candidate molecule containing cartridges/channels so that all of the potential antagonist candidate molecules are screened.\n(§2) Selection and screening of the antagonist molecules was performed using the VAS aroma blending device. As described above, each off-note molecule from Table 1 was loaded into its own individual cartridge or channel as shown in Table 2 (#'s 1-5). Each off-note molecule was diluted with medium-chain triglyceride (“MCT”) prior to loading into the cartridge/channel. Next, the target non-animal protein was diluted at 2% plus 0.1% xanthan gum in water with a small amount of antifoam agent (0.01%) and was placed into a cartridge/channel (#21). Each antagonist candidate molecule was then diluted with MCT in a pre-determined concentration and was loaded into a cartridge/channel as shown in Table 2 (#'s 6-20). Next, the gas flow (between 0 to 500 ml/min) on the off-note molecule containing cartridge/channel is first opened, followed by one of the antagonist candidate molecule containing cartridges/channels. The intensity of the flow of the antagonist candidate molecule containing cartridge/channel is adjusted until the off-note is canceled or neutralized by the antagonist candidate molecule, i.e neutralization concentration. This process is repeated for each antagonist candidate molecule containing cartridges/channels so that all of the potential antagonist candidate molecules are screened.\n(§3) The numeric number in the column refers the flow rate on VAS aroma blending device."}, "[2]": {"assay": "Antagonist screening for pea protein off-notes on VAS aroma blending device, off-note Ex. B", "set-up": "key to Off-note Ex. B masking effect: +++ being most effective; ++ in the middle; + some effect; +/− being in between; − being no effect", "conditions": "off-note channel 2, 0.001% in MCT, flow 150; antagonist channel conc. as in Table 2 c2", "method": "as §1, §2, §3"}, "[3]": {"assay": "Antagonist screening for pea protein off-notes on VAS aroma blending device, off-note Ex. C", "set-up": "key to Off-note Ex. C masking effect: +++ being most effective; ++ in the middle; + some effect; +/− being in between; − being no effect", "conditions": "off-note channel 3, 0.01% in MCT, flow 185; antagonist channel conc. as in Table 2 c2", "method": "as §1, §2, §3"}, "[4]": {"assay": "Antagonist screening for pea protein off-notes on VAS aroma blending device, off-note Ex. D", "set-up": "key to Off-note Ex. D masking effect: +++ being most effective; ++ in the middle; + some effect; +/− being in between; − being no effect", "conditions": "off-note channel 4, 0.10% in MCT, flow 15; antagonist channel conc. as in Table 2 c2", "method": "as §1, §2, §3"}, "[5]": {"assay": "Antagonist screening for pea protein off-notes on VAS aroma blending device, off-note Ex. E", "set-up": "key to Off-note Ex. E masking effect: +++ being most effective; ++ in the middle; + some effect; +/− being in between; − being no effect", "conditions": "off-note channel 5, 1.0% in MCT, flow 150; antagonist channel conc. as in Table 2 c2", "method": "as §1, §2, §3"}}}
{"compound": "C=CCOC(=O)CCC1CCCCC1", "note": "[Ally1 Cyclohexyl Proprionate]", "values": [{"measurement": "Off-note Ex. A Flow Rate (antagonist channel)", "setting": "[1]", "result": 165, "unit": "mL/min"}, {"measurement": "Off-note Ex. A masking effect", "setting": "[1]", "result": "+/−"}, {"measurement": "Off-note Ex. B masking effect", "setting": "[2]", "result": "−"}, {"measurement": "Off-note Ex. C Flow Rate (antagonist channel)", "setting": "[3]", "result": 100, "unit": "mL/min"}, {"measurement": "Off-note Ex. C masking effect", "setting": "[3]", "result": "+++"}, {"measurement": "Off-note Ex. D masking effect", "setting": "[4]", "result": "−"}, {"measurement": "Off-note Ex. E Flow Rate (antagonist channel)", "setting": "[5]", "result": 175, "unit": "mL/min"}, {"measurement": "Off-note Ex. E masking effect", "setting": "[5]", "result": "++"}]}
{"compound": "CCOC(=O)CCC(=O)OCC", "note": "[Diethyl Succinate]", "values": [{"measurement": "Off-note Ex. A Flow Rate (antagonist channel)", "setting": "[1]", "result": 250, "unit": "mL/min"}, {"measurement": "Off-note Ex. A masking effect", "setting": "[1]", "result": "++"}, {"measurement": "Off-note Ex. B Flow Rate (antagonist channel)", "setting": "[2]", "result": 300, "unit": "mL/min"}, {"measurement": "Off-note Ex. B masking effect", "setting": "[2]", "result": "++"}, {"measurement": "Off-note Ex. C Flow Rate (antagonist channel)", "setting": "[3]", "result": 200, "unit": "mL/min"}, {"measurement": "Off-note Ex. C masking effect", "setting": "[3]", "result": "+/−"}, {"measurement": "Off-note Ex. D Flow Rate (antagonist channel)", "setting": "[4]", "result": 200, "unit": "mL/min"}, {"measurement": "Off-note Ex. D masking effect", "setting": "[4]", "result": "++"}]}
{"compound": "CCCCCCCCCCCCCCCC(=O)OCC", "note": "[Ethyl Palmitate]", "values": [{"measurement": "Off-note Ex. A masking effect", "setting": "[1]", "result": "−"}, {"measurement": "Off-note Ex. B Flow Rate (antagonist channel)", "setting": "[2]", "result": 100, "unit": "mL/min"}, {"measurement": "Off-note Ex. C Flow Rate (antagonist channel)", "setting": "[3]", "result": 35, "unit": "mL/min"}, {"measurement": "Off-note Ex. C masking effect", "setting": "[3]", "result": "++"}, {"measurement": "Off-note Ex. D masking effect", "setting": "[4]", "result": "−"}, {"measurement": "Off-note Ex. E Flow Rate (antagonist channel)", "setting": "[5]", "result": 300, "unit": "mL/min"}, {"measurement": "Off-note Ex. E masking effect", "setting": "[5]", "result": "+"}]}
{"compound": "CCOC(=O)C(C)O", "note": "(stereo not drawn) [Ethyl lactate]", "values": [{"measurement": "Off-note Ex. A Flow Rate (antagonist channel)", "setting": "[1]", "result": 90, "unit": "mL/min"}, {"measurement": "Off-note Ex. A masking effect", "setting": "[1]", "result": "+++"}, {"measurement": "Off-note Ex. B Flow Rate (antagonist channel)", "setting": "[2]", "result": 100, "unit": "mL/min"}, {"measurement": "Off-note Ex. B masking effect", "setting": "[2]", "result": "+++"}, {"measurement": "Off-note Ex. C Flow Rate (antagonist channel)", "setting": "[3]", "result": 200, "unit": "mL/min"}, {"measurement": "Off-note Ex. C masking effect", "setting": "[3]", "result": "++"}, {"measurement": "Off-note Ex. D Flow Rate (antagonist channel)", "setting": "[4]", "result": 200, "unit": "mL/min"}, {"measurement": "Off-note Ex. D masking effect", "setting": "[4]", "result": "++"}]}
{"compound": "Bisabolene", "values": [{"measurement": "Off-note Ex. A masking effect", "setting": "[1]", "result": "−"}, {"measurement": "Off-note Ex. B masking effect", "setting": "[2]", "result": "−"}, {"measurement": "Off-note Ex. C masking effect", "setting": "[3]", "result": "−"}, {"measurement": "Off-note Ex. D masking effect", "setting": "[4]", "result": "−"}, {"measurement": "Off-note Ex. E Flow Rate (antagonist channel)", "setting": "[5]", "result": 150, "unit": "mL/min"}, {"measurement": "Off-note Ex. E masking effect", "setting": "[5]", "result": "+"}]}
{"compound": "Caryophyllene", "values": [{"measurement": "Off-note Ex. A Flow Rate (antagonist channel)", "setting": "[1]", "result": 100, "unit": "mL/min"}, {"measurement": "Off-note Ex. A masking effect", "setting": "[1]", "result": "+++"}, {"measurement": "Off-note Ex. B masking effect", "setting": "[2]", "result": "+"}, {"measurement": "Off-note Ex. C masking effect", "setting": "[3]", "result": "−"}, {"measurement": "Off-note Ex. D Flow Rate (antagonist channel)", "setting": "[4]", "result": 150, "unit": "mL/min"}, {"measurement": "Off-note Ex. D masking effect", "setting": "[4]", "result": "++"}, {"measurement": "Off-note Ex. E Flow Rate (antagonist channel)", "setting": "[5]", "result": "200 to 225", "unit": "mL/min"}, {"measurement": "Off-note Ex. E masking effect", "setting": "[5]", "result": "+"}]}
